# Test results taken from ChEMBL document CHEMBL5550145, “Synthesis and cytotoxicity evaluation of d- and l-sugar-containing mono- and bidesmosidic ursane-type saponins” (Bioorg Med Chem, 2024).
# Key:
# A549 = experiment: Cytotoxicity against human A549 cells assessed as inhibition of cell growth measured after 48 hrs by Hoechst 33258 staining based fluorescence assay; type: functional; details: A549, 48 h
# [1] = Cytotoxicity against human WS1 cells assessed as inhibition of cell growth measured after 48 hrs by Hoechst 33258 staining based fluorescence assay; type: toxicity
# DLD-1 = experiment: Cytotoxicity against human DLD-1 cells assessed as inhibition of cell growth measured after 48 hrs by Hoechst 33258 staining based fluorescence assay; type: functional; details: DLD-1, 48 h
Structure (SMILES),IC50 (A549) [µM],IC50 at 48 h [1] [µM],IC50 (DLD-1) [µM]
C=C(C)[C@@H]1CC[C@]2(CO[C@@H]3O[C@@H](C)[C@H](O)[C@@H](O)[C@H]3O)CC[C@]3(C)[C@H](CC[C@@H]4[C@@]5(C)CC[C@H](O[C@@H]6O[C@@H](C)[C@H](O)[C@@H](O)[C@H]6O)C(C)(C)[C@@H]5CC[C@]43C)[C@@H]12,1.07,1.42,
C[C@H]1[C@H](C)CC[C@]2(CO[C@H]3OC[C@H](O)[C@H](O)[C@H]3O)CC[C@]3(C)C(=CC[C@@H]4[C@@]5(C)CC[C@H](O[C@@H]6OC[C@H](O)[C@H](O)[C@H]6O)C(C)(C)[C@@H]5CC[C@]43C)[C@H]12,8.9,37,31
C[C@H]1[C@H](C)CC[C@]2(C(=O)O)CC[C@]3(C)C(=CC[C@@H]4[C@@]5(C)CC[C@H](O[C@@H]6OC[C@H](O)[C@@H](O)[C@H]6O)C(C)(C)[C@@H]5CC[C@]43C)[C@H]12,39,20,29
C[C@H]1[C@H](C)CC[C@]2(C(=O)O)CC[C@]3(C)C(=CC[C@@H]4[C@@]5(C)CC[C@H](O[C@@H]6O[C@H](C)[C@H](O)[C@H](O)[C@H]6O)C(C)(C)[C@@H]5CC[C@]43C)[C@H]12,7,13.1,15
C[C@H]1[C@H](C)CC[C@]2(CO[C@@H]3O[C@H](C)[C@H](O)[C@H](O)[C@H]3O)CC[C@]3(C)C(=CC[C@@H]4[C@@]5(C)CC[C@H](O[C@@H]6O[C@H](C)[C@H](O)[C@H](O)[C@H]6O)C(C)(C)[C@@H]5CC[C@]43C)[C@H]12,8.9,16,12
C[C@H]1[C@H](C)CC[C@]2(C(=O)O)CC[C@]3(C)C(=CC[C@@H]4[C@@]5(C)CC[C@H](O[C@H]6O[C@H](C)[C@@H](O)[C@H](O)[C@@H]6O)C(C)(C)[C@@H]5CC[C@]43C)[C@H]12,65,77,61
C[C@H]1[C@H](C)CC[C@]2(CO[C@H]3O[C@@H](C)[C@@H](O)[C@@H](O)[C@@H]3O)CC[C@]3(C)C(=CC[C@@H]4[C@@]5(C)CC[C@H](O[C@H]6O[C@@H](C)[C@@H](O)[C@@H](O)[C@@H]6O)C(C)(C)[C@@H]5CC[C@]43C)[C@H]12,104,62,48
C[C@H]1[C@H](C)CC[C@]2(C(=O)O)CC[C@]3(C)C(=CC[C@@H]4[C@@]5(C)CC[C@H](O[C@H]6O[C@@H](C)[C@@H](O)[C@@H](O)[C@@H]6O)C(C)(C)[C@@H]5CC[C@]43C)[C@H]12,3.7,7.2,15
C[C@H]1[C@H](C)CC[C@]2(C(=O)O)CC[C@]3(C)C(=CC[C@@H]4[C@@]5(C)CC[C@H](O[C@H]6OC[C@@H](O)[C@@H](O)[C@@H]6O)C(C)(C)[C@@H]5CC[C@]43C)[C@H]12,9,10,7.9
C[C@H]1[C@H](C)CC[C@]2(C(=O)O)CC[C@]3(C)C(=CC[C@@H]4[C@@]5(C)CC[C@H](O[C@@H]6OC[C@@H](O)[C@H](O)[C@H]6O)C(C)(C)[C@@H]5CC[C@]43C)[C@H]12,7.4,9,7
C[C@H]1[C@H](C)CC[C@]2(CO[C@@H]3O[C@@H](C)[C@H](O)[C@@H](O)[C@H]3O)CC[C@]3(C)C(=CC[C@@H]4[C@@]5(C)CC[C@H](O[C@@H]6O[C@@H](C)[C@H](O)[C@@H](O)[C@H]6O)C(C)(C)[C@@H]5CC[C@]43C)[C@H]12,4.5,14,11
C[C@H]1[C@H](C)CC[C@]2(CO[C@H]3O[C@H](C)[C@@H](O)[C@H](O)[C@@H]3O)CC[C@]3(C)C(=CC[C@@H]4[C@@]5(C)CC[C@H](O[C@H]6O[C@H](C)[C@@H](O)[C@H](O)[C@@H]6O)C(C)(C)[C@@H]5CC[C@]43C)[C@H]12,104,> 200,109
C[C@H]1[C@H](C)CC[C@]2(C(=O)O)CC[C@]3(C)C(=CC[C@@H]4[C@@]5(C)CC[C@H](O[C@H]6OC[C@H](O)[C@@H](O)[C@@H]6O)C(C)(C)[C@@H]5CC[C@]43C)[C@H]12,35,30,36
C[C@H]1[C@H](C)CC[C@]2(C(=O)O)CC[C@]3(C)C(=CC[C@@H]4[C@@]5(C)CC[C@H](O[C@@H]6O[C@@H](C)[C@H](O)[C@@H](O)[C@H]6O)C(C)(C)[C@@H]5CC[C@]43C)[C@H]12,14,8.5,11
C[C@H]1[C@H](C)CC[C@]2(C(=O)O)CC[C@]3(C)C(=CC[C@@H]4[C@@]5(C)CC[C@H](O[C@@H]6OC[C@H](O)[C@H](O)[C@H]6O)C(C)(C)[C@@H]5CC[C@]43C)[C@H]12,3.5,5.9,3.8
C[C@H]1[C@H](C)CC[C@]2(CO[C@@H]3OC[C@@H](O)[C@@H](O)[C@@H]3O)CC[C@]3(C)C(=CC[C@@H]4[C@@]5(C)CC[C@H](O[C@H]6OC[C@@H](O)[C@@H](O)[C@@H]6O)C(C)(C)[C@@H]5CC[C@]43C)[C@H]12,10,20,16
C[C@H]1[C@H](C)CC[C@]2(C(=O)O)CC[C@]3(C)C(=CC[C@@H]4[C@@]5(C)CC[C@H](O[C@H]6OC[C@@H](O)[C@H](O)[C@@H]6O)C(C)(C)[C@@H]5CC[C@]43C)[C@H]12,9,4.6,6.4
C[C@H]1[C@H](C)CC[C@]2(CO[C@H]3OC[C@@H](O)[C@H](O)[C@H]3O)CC[C@]3(C)C(=CC[C@@H]4[C@@]5(C)CC[C@H](O[C@@H]6OC[C@@H](O)[C@H](O)[C@H]6O)C(C)(C)[C@@H]5CC[C@]43C)[C@H]12,15,20,14.9
C[C@H]1[C@H](C)CC[C@]2(CO[C@H]3OC[C@H](O)[C@@H](O)[C@H]3O)CC[C@]3(C)C(=CC[C@@H]4[C@@]5(C)CC[C@H](O[C@@H]6OC[C@H](O)[C@@H](O)[C@H]6O)C(C)(C)[C@@H]5CC[C@]43C)[C@H]12,15,60,57
C[C@H]1[C@H](C)CC[C@]2(CO[C@@H]3OC[C@H](O)[C@@H](O)[C@@H]3O)CC[C@]3(C)C(=CC[C@@H]4[C@@]5(C)CC[C@H](O[C@H]6OC[C@H](O)[C@@H](O)[C@@H]6O)C(C)(C)[C@@H]5CC[C@]43C)[C@H]12,9.8,> 200,> 200
C[C@H]1[C@H](C)CC[C@]2(CO[C@@H]3OC[C@@H](O)[C@H](O)[C@@H]3O)CC[C@]3(C)C(=CC[C@@H]4[C@@]5(C)CC[C@H](O[C@H]6OC[C@@H](O)[C@H](O)[C@@H]6O)C(C)(C)[C@@H]5CC[C@]43C)[C@H]12,34,10,38
COc1cc([C@@H]2c3cc4c(cc3[C@@H](O[C@@H]3O[C@@H]5CO[C@@H](C)O[C@H]5[C@H](O)[C@H]3O)[C@H]3COC(=O)[C@H]23)OCO4)cc(OC)c1O [ETOPOSIDE],1.9,> 50,5.1
C[C@H]1[C@H](C)CC[C@]2(C(=O)O)CC[C@]3(C)C(=CC[C@@H]4[C@@]5(C)CC[C@H](O)C(C)(C)[C@@H]5CC[C@]43C)[C@H]12 [URSOLIC ACID],16,13.1,16
C[C@H]1[C@H](C)CC[C@]2(CO)CC[C@]3(C)C(=CC[C@@H]4[C@@]5(C)CC[C@H](O)C(C)(C)[C@@H]5CC[C@]43C)[C@H]12 [UVAOL],> 200,> 200,> 200
